Source: patent US20070238700A1, “N-PHENYL-1,1,1-TRIFLUOROMETHANESULFONAMIDE HYDRAZONE DERIVATIVE COMPOUNDS AND THEIR USAGE IN CONTROLLING PARASITES” (priority 2006, published 2007)
Read-outs that look alike come from different tables or passages of the source.

Test system: Ctenocephalides felis
Protocol: b) Ctenocephalides felis Adulticide Assay: C. felis Single Dose Screen
Mortality of fleas was the primary endpoint in the assay. Fleas were considered dead if they didn't move or were on their sides and unable to walk or right themselves. […] The concentration chosen (1.26 μg/cm^2) was higher than that known to kill 90% of cat fleas (LC90) using the reference compound, permethrin.
The test species was the cat flea (Ctenocephalides felis). The strain used was obtained from external suppliers as pupae and held in the laboratory under testing conditions until the adults had emerged. Fifteen (15) fleas were used in a minimum of four replicates against a single concentration level (approximately 60 fleas). The insects were selected to be in the adult life stage, aged between 3 and 7 days post emergence.
The compounds to be tested were supplied as solids and were prepared in acetone as described below prior to testing. Samples were stored in a refrigerator (5±1° C.) unless otherwise specified.
During the mortality testing, the temperature was maintained at 25±1° C. Humidity was maintained at 75±5%. The base (area=159 mm^2) of a 100 mL glass Erlenmeyer (conical) flask provided the treatment surface. Flasks were pretreated with Coatasil™ glass treatment to maximise bio-availability of test compounds by preventing them from binding to glass the surface. The base of the 100 mL Erlenmeyer flask was treated with 0.5 mL of test sample in acetone and gently swirled. This volume was sufficient to cover the base of the flask. Flasks were left to dry for 24 hours before flea exposure.
Adult cat fleas were placed into a sorting chamber, which allowed fleas to jump into the Erlenmeyer flasks. Fifteen (15) adult cat fleas were collected in each flask. The top of the flasks were then covered in Parafilm™ and small holes were made to allow gas exchange. A 0.5 mL volume of acetone as a solvent control was applied to the base of an Erlenmeyer flask and the testing proceeded in the same manner described above. Cat fleas in the treatment containers were held under testing conditions for 8, 24 and/or 48 hours. Mortality was recorded at 8, 24, 8 and 24, or 24 and 48 hours Pooled 8, 24, 8 and 24, and 24 and 48 hour mortality data were converted to percentages and are summarized by Table 21, below.

Structure (SMILES) | C. felis Mortality (%) 8 h (8 h, data from laboratory 1) [%] | C. felis Mortality (%) 24 h (24 h, data from laboratory 1) [%] | further results
Cn1nccc1-c1cc(Cl)ccc1NS(=O)(=O)C(F)(F)F (single isomer, unassigned) [Compound 93, N-[2-(1-methyl-1H-pyrazol-5-yl)-4-chlorophenyl]-trifluoromethanesulfonamide] |  |  | C. felis Mortality (%) 8 h (8 h): 5%; C. felis Mortality (%) 24 h (24 h): 9%
CN(N=C(c1ccccc1)c1cc(Cl)ccc1NS(=O)(=O)C(F)(F)F)c1ccccc1 (single isomer, unassigned) [Compound 117] | 12 | 59 | 
CN(N=C(c1ccccc1)c1cc(Cl)ccc1NS(=O)(=O)C(F)(F)F)c1ccccc1 (single isomer, unassigned) [Compound 118] | 6 | 27 | 
CC(=NNc1ccccc1)c1cc(Cl)ccc1NS(=O)(=O)C(F)(F)F [Compound 12, N-[2-(1-phenylhydrazono)ethyl-4-chlorophenyl]-trifluoromethanesulfonamide] |  |  | C. felis Mortality (%) 8 h: 20^B %
CC(=NN(C)c1ccc(Cl)cc1Cl)c1cc(Cl)ccc1N(C)S(=O)(=O)C(F)(F)F [Compound 29] |  | 0 | C. felis Mortality (%) 48 h (data from laboratory 1): 58%
CCCN(N=C(C)c1cc(Cl)ccc1NS(=O)(=O)C(F)(F)F)c1ccc(Cl)cc1Cl [Compound 31] |  | 85 | C. felis Mortality (%) 48 h (data from laboratory 1): 100%
CC(=NN(c1ccc(Cl)cc1Cl)C(C)C)c1cc(Cl)ccc1NS(=O)(=O)C(F)(F)F [Compound 32] |  | 41 | C. felis Mortality (%) 48 h (data from laboratory 1): 100%
CC(=NN(C)c1ccccc1Cl)c1cc(Cl)ccc1N(C)S(=O)(=O)C(F)(F)F [Compound 40] |  | 0 | C. felis Mortality (%) 48 h (data from laboratory 1): 13%
CCCN(N=C(C)c1cc(Cl)ccc1NS(=O)(=O)C(F)(F)F)c1ccccc1Cl [Compound 42] |  | 67 | C. felis Mortality (%) 48 h (data from laboratory 1): 100%
CCCN(N=C(C)c1cc(Cl)ccc1NS(=O)(=O)C(F)(F)F)c1ccccc1F [Compound 45] |  | 27 | C. felis Mortality (%) 48 h (data from laboratory 1): 100%
CC(=NN(c1ccccc1F)C(C)C)c1cc(Cl)ccc1NS(=O)(=O)C(F)(F)F [Compound 46] | 44 | 100 | 
CC(=NN(c1ccc(Br)cc1)C(C)C)c1cc(Cl)ccc1NS(=O)(=O)C(F)(F)F [Compound 52] | 51 | 100 | 
CC(=NNC(=O)c1ccc(Cl)cc1)c1cc(Cl)ccc1NS(=O)(=O)C(F)(F)F [Compound 57, N-[2-[1-(4-chlorobenzoyl)hydrazono]ethyl-4-chlorophenyl]-trifluoromethanesulfonamide] |  |  | C. felis Mortality (%) 8 h: 6%; C. felis Mortality (%) 24 h: 70%
CC(=NNC(=O)c1ccccc1Cl)c1cc(Cl)ccc1NS(=O)(=O)C(F)(F)F [Compound 58] | 2 | 13 | 
CC(=NNC(=O)c1ccc(Cl)cc1Cl)c1cc(Cl)ccc1NS(=O)(=O)C(F)(F)F [Compound 61] | 12 | 45 | 
CC(=NN(C)c1ccc(F)cc1)c1cc(Cl)ccc1NS(=O)(=O)C(F)(F)F [Compound 64] | 1 | 50 | 
CC(=NN(c1cc(Cl)cc(Cl)c1)C(C)C)c1cc(Cl)ccc1NS(=O)(=O)C(F)(F)F [Compound 67] | 20 | 85 | 
CC(=NN(c1ccc(Cl)c(Cl)c1)C(C)C)c1cc(Cl)ccc1NS(=O)(=O)C(F)(F)F [Compound 68] | 18 | 73 | 
CCN(N=C(C)c1cc(Cl)ccc1NS(=O)(=O)C(F)(F)F)c1cccc(Cl)c1Cl [Compound 69] | 39 | 92 | 

Structure (SMILES) | C. felis Mortality (%) 8 h (8 h, data from laboratory 1) [%] | C. felis Mortality (%) 24 h (24 h, data from laboratory 1) [%] | further results
COC(=O)NN=C(C)c1cc(Cl)ccc1NS(=O)(=O)C(F)(F)F [Compound 78, N-[2-[1-(methoxycarbonylhydrazono)ethyl]-4-chlorophenyl]-trifluoromethanesulfonamide] |  |  | C. felis Mortality (%) 8 h (8 h): 16%; C. felis Mortality (%) 24 h (24 h): 16%
CCC(=NNC(=O)c1ccc(Cl)cc1Cl)c1cc(Cl)ccc1NS(=O)(=O)C(F)(F)F [Compound 79] | 14 | 92 | 
CCC(=NNC(=O)c1ccccc1Cl)c1cc(Cl)ccc1NS(=O)(=O)C(F)(F)F [Compound 80] | 17 | 88 | 
O=S(=O)(Nc1ccc(Cl)cc1C(=NN1CCCCC1)c1ccccc1)C(F)(F)F [Compound 83] | 15 | 17 | 
O=S(=O)(Nc1ccc(Cl)cc1C(=NN1CCOCC1)c1ccccc1)C(F)(F)F [Compound 84] | 9 | 76 | 
CCOC(=O)NN=C(C)c1cc(Cl)ccc1NS(=O)(=O)C(F)(F)F [Compound 85] | 3 | 12 | 
CC(=NNC(=O)OC(C)(C)C)c1cc(Cl)ccc1NS(=O)(=O)C(F)(F)F [Compound 86] | 4 | 26 | 
CCC(=NNC(=O)OC)c1cc(Cl)ccc1NS(=O)(=O)C(F)(F)F [Compound 87] | 7 | 12 | 
CCOC(=O)NN=C(CC)c1cc(Cl)ccc1NS(=O)(=O)C(F)(F)F [Compound 88] | 6 | 25 | 
CCC(=NNC(=O)OC(C)(C)C)c1cc(Cl)ccc1NS(=O)(=O)C(F)(F)F [Compound 89] | 6 | 43 | 
CC(=NNC(=O)Nc1ccccc1)c1cc(Cl)ccc1NS(=O)(=O)C(F)(F)F [Compound 90, N-[2-[1-(4-phenyl)semicarbazono]ethyl-4-chlorophenyl]-trifluoromethanesulfonamide] |  |  | C. felis Mortality (%) 8 h: 3%; C. felis Mortality (%) 24 h: 18%
CC(=NNC(=O)Nc1ccccc1Cl)c1cc(Cl)ccc1NS(=O)(=O)C(F)(F)F [Compound 91] | 10 | 10 | 
CC(=NNC(=O)Nc1ccc(Cl)cc1)c1cc(Cl)ccc1NS(=O)(=O)C(F)(F)F [Compound 92] | 8 | 8 | 
O=S(=O)(Nc1ccc(Cl)cc1-c1ccn(-c2ccccc2)n1)C(F)(F)F [Compound 94] | 6 | 8 | 
O=S(=O)(Nc1ccc(Cl)cc1-c1cc[nH]n1)C(F)(F)F [Compound 95] | 25 | 83 | 
CCN(N=C(C)c1cc(Cl)ccc1NS(=O)(=O)C(F)(F)F)c1ccc(C)cc1 [Compound 101] | 11 | 90 | 
CC(=NN(c1ccc(C)cc1)C(C)C)c1cc(Cl)ccc1NS(=O)(=O)C(F)(F)F [Compound 102] | 3 | 90 | 
CCCN(N=C(C)c1cc(Cl)ccc1NS(=O)(=O)C(F)(F)F)c1cccc(Cl)c1 [Compound 106] | 0 | 25 | 
CC(=NN1CCCCCC1)c1cc(Cl)ccc1NS(=O)(=O)C(F)(F)F [Compound 107] | 2 | 23 | 
